Test results published in US7119094B1, “Substituted polycyclic aryl and heteroarpyl pyrazinones useful for selective inhibition of the coagulation cascade” (Warner-Lambert Company, priority 2000, dated 2006).
Read-outs that look alike come from different tables or passages of the source. Each block holds one compound with its values, some of them ahead of it.

Columns and labels:
[1] = target: T1, recombinant soluble tissue factor and recombinant human factor VIIa (TF-VIIa) (Homo sapiens, UniProt P08709); assay: TF-VIIa Assay; format: biochemical
T1 construct: conversion of coagulation factor VII to VIIa by Xa; purchased American Diagnostica, Greenwich Conn; host or cells: factor VIIa purchased; soluble TF made in house in E. coli

[2] = target: T2, Trypsin (type 1× from porcine pancreas) (Sus scrofa, UniProt P00761); assay: Trypsin Assay; format: biochemical
T2 construct: Trypsin (5 ug/ml; type 1× from porcine pancreas); purchased Sigma, St. Louis Mo; host or cells: porcine pancreas

Human factor Xa = target: T3, Human factor Xa (Homo sapiens, UniProt P00742); assay: Xa Assay; format: biochemical; conditions: for % Inhibition Factor Xa (30 µM): at 30 µM; for IC50: cells without % sign
T3 construct: Human factor Xa (0.3 nM); purchased Enzyme Research Laboratories, South Bend Ind

Human thrombin = Human thrombin (Homo sapiens, UniProt P00734)
[3] = cells without % sign, read-out: IC50 TF-VIIa
[4] = cells without % sign, read-out: IC50 Trypsin II

T3 sequence (P00742 235-488 limits assumed): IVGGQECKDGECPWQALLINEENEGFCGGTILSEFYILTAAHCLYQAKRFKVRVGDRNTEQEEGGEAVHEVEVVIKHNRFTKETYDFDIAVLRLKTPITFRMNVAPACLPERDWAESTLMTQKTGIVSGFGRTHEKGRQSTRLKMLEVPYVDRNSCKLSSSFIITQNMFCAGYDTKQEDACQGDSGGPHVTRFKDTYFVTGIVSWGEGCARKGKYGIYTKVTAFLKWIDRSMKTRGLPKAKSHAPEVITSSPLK
T3 sequence (P00742 41-179 limits assumed): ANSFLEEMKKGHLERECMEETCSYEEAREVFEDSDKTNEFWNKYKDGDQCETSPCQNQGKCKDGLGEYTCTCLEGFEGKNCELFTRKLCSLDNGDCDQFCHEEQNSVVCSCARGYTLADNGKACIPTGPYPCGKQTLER
T2 sequence (P00761 9-231): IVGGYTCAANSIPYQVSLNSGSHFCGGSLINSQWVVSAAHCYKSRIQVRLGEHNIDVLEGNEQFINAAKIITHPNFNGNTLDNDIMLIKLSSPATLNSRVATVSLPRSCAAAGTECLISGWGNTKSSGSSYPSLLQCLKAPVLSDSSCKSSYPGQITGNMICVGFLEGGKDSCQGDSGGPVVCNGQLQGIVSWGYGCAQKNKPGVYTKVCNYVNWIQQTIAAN
T1 sequence (P08709 213-466 limits assumed): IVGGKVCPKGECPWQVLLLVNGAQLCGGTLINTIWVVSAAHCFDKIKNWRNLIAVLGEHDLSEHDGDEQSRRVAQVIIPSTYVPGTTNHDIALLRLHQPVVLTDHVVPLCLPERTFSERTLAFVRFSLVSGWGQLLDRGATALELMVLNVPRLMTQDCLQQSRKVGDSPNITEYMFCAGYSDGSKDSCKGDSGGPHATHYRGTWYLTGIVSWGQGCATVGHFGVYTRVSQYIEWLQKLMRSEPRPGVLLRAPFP
T1 sequence (P08709 61-212 limits assumed): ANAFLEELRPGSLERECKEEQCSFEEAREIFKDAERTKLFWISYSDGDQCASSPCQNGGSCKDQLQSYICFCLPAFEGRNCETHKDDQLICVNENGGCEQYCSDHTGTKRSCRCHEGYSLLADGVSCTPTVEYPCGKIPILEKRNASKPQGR
T1 sequence (P13726 33-251 partner limits assumed): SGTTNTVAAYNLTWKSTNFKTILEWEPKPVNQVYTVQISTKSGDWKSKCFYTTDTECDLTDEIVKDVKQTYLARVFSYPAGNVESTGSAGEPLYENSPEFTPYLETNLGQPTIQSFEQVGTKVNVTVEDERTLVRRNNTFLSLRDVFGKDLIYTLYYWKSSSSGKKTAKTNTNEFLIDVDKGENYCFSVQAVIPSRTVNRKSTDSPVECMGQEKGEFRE

Structure (SMILES): Nc1cccc(-c2c(Cl)nc(NC3CCC3)c(=O)n2CC(=O)N2CCC3(CC2)OCCO3)c1 [1543-41]
- % Inhibition TF-VIIa (30 µM) ([1]; at 30 µM, cells with % sign): 3%
- % Inhibition Trypsin II (30 µM) ([2]; at 30 µM, cells with % sign): 6%
- % Inhibition Factor Xa (30 µM) (Human factor Xa; cells with % sign, and bare 0): 9%

Structure (SMILES): O=C(Cn1c(-c2ccc(-c3ccccc3)cc2)c(Cl)nc(NCCc2cccc(Cl)c2)c1=O)NCCc1cccnc1 [Example E-0116]
- % Inhibition Thrombin II (100 νM) (Human thrombin): 0%
- % Inhibition Trpysin II (100 νM) [2]: 10%

Structure (SMILES): O=C(Cn1c(-c2ccc(-c3ccccc3)cc2)c(Cl)nc(NCCN2CCOCC2)c1=O)NCCc1ccncc1 [Example E-0055]
- % Inhibition TF-VIIa (100 νM) [1]: 0%
- % Inhibition Thrombin II (100 νM) (Human thrombin): 0%
- % Inhibition Trpysin II (100 νM) [2]: 0%

Structure (SMILES): O=C(Cn1c(-c2ccc(-c3ccccc3)cc2)c(Cl)nc(NCCc2cccnc2)c1=O)NCCc1ccncc1 [Example E-0053]
- % Inhibition TF-VIIa (100 νM) [1]: 0%
- % Inhibition Thrombin II (100 νM) (Human thrombin): 0%
- % Inhibition Trpysin II (100 νM) [2]: 0%

Structure (SMILES): O=C(Cn1c(-c2ccc(-c3ccccc3)cc2)c(Cl)nc(NCCc2ccncc2)c1=O)NCCc1ccncc1 [Example E-0054]
- % Inhibition Thrombin II (100 νM) (Human thrombin): 0%

Structure (SMILES): O=C(Cn1c(-c2ccc(-c3ccccc3)cc2)c(Cl)nc(NCCc2ccc(Cl)cc2)c1=O)NCCc1cccnc1 [Example E-0119]
- % Inhibition Thrombin II (100 νM) (Human thrombin): 0%
- % Inhibition Trpysin II (100 νM) [2]: 10%

Structure (SMILES): CC(C)Nc1nc(Cl)c(-c2cc(N)cc(C(=O)NCc3ccc(Cl)cc3Cl)c2)n(CC(=O)NCc2ccc(C(=N)N)cc2)c1=O [Example 128-5]
- % Inhibition Factor Xa at 100 μM (Human factor Xa): 43% at

Structure (SMILES): O=C(Cn1c(-c2ccc(-c3ccccc3)cc2)c(Cl)nc(NCc2ccccc2)c1=O)NCCc1cccnc1 [Example E-0110]
- % Inhibition TF-VIIa (100 νM) [1]: 0%
- % Inhibition Thrombin II (100 νM) (Human thrombin): 0%

Structure (SMILES): COc1ccc(-c2c(Cl)nc(NCCc3cccc(Cl)c3)c(=O)n2CC(=O)NCCc2ccncc2)cc1 [Example E-0035]
- % Inhibition TF-VIIa (100 νM) ([1]; inhibitor at 100 νM): 4%
- % Inhibition Trpysin II (100 νM) ([2]; inhibitor at 100 νM): 2%

Structure (SMILES): O=C(Cn1c(Cc2ccccc2)c(Cl)nc(NCCc2ccc(Cl)cc2)c1=O)NCCc1ccncc1 [Example E-0060]
- % Inhibition TF-VIIa (100 νM) ([1]; inhibitor at 100 νM): 0%
- % Inhibition Trpysin II (100 νM) ([2]; inhibitor at 100 νM): 0%

Results, then the compound that gave them:

- IC50 [1, 3]: 0.07 µM
- IC50 [2, 4]: 0.04 µM
- % Inhibition Factor Xa (30 µM) (Human factor Xa; cells with % sign, and bare 0): 24%
Structure (SMILES): N=C(N)c1ccc(CNC(=O)Cn2c(-c3cccc(N)c3)c(Cl)nc(NCCCCCC(N)=O)c2=O)cc1 [1543-11]

- IC50 [1, 3]: 9 µM
- IC50 [2, 4]: 2 µM
- % Inhibition Factor Xa (30 µM) (Human factor Xa; cells with % sign, and bare 0): 0%
Structure (SMILES): CC(C(=O)NCc1ccc(C(=N)N)cc1)n1c(-c2ccccc2)c(Cl)nc(NCc2ccccc2)c1=O (stereo not shown) [Example 1517-03]

- IC50 [1, 3]: 0.08 µM
- IC50 [2, 4]: 0.2 µM
- IC50 (Human factor Xa): > 30 µM
Structure (SMILES): N=C(N)c1ccc(CNC(=O)Cn2c(-c3cccc(N)c3)c(Cl)nc(NC3CC4CCC3C4)c2=O)cc1 (stereo not shown) [1526-30]

- IC50 [1, 3]: 4.6 µM
- IC50 [2, 4]: 1.2 µM
- % Inhibition Factor Xa (30 µM) (Human factor Xa; cells with % sign, and bare 0): 0%
Structure (SMILES): CC(C(=O)NCc1ccc(C(=N)N)cc1)n1c(-c2ccccc2)c(Cl)nc(NCc2ccccc2)c1=O (stereo not shown) [Example 1517-05]

- IC50 [1, 3]: 3.1 µM
- IC50 [2, 4]: 1.5 µM
- % Inhibition Factor Xa (30 µM) (Human factor Xa; cells with % sign, and bare 0): 0%
Structure (SMILES): CC(C(=O)NCc1ccc(C(=N)N)cc1)n1c(-c2ccccc2)c(Cl)nc(NCCc2ccccc2)c1=O (stereo not shown) [Example 1517-15]

- % Inhibition Factor Xa at 100 μM (Human factor Xa): 44% at
Structure (SMILES): CC(C)Nc1nc(Cl)c(-c2cc(N)cc(C(=O)NCc3ccc(Br)cc3)c2)n(CC(=O)NCc2ccc(C(=N)N)cc2)c1=O [Example 128-8]

- IC50 [1, 3]: 2.3 µM
- IC50 [2, 4]: 1.4 µM
- % Inhibition Factor Xa (30 µM) (Human factor Xa; cells with % sign, and bare 0): 0%
Structure (SMILES): CC(C(=O)NCc1ccc(C(=N)N)cc1)n1c(-c2ccccc2)c(Cl)nc(NCCc2cccc(Cl)c2)c1=O (stereo not shown) [Example 1517-23]

- IC50 ([1]; read-out: IC50 TF-VIIa, cell printed 'at 100 μM', cell adds 'at 100 μM'): 0.14 µM
- IC50 ([2]; read-out: IC50 Trypsin II, cell printed 'at 100 μM', cell adds 'at 100 μM'): 0.048 µM
- % Inhibition Factor Xa at 100 μM (Human factor Xa): 21% at
Structure (SMILES): N=C(N)c1ccc(CNC(=O)Cn2c(-c3cccc(N)c3)c(Cl)nc(NC(CC(=O)O)c3ccccc3)c2=O)cc1 (racemic) [Example 131]

- % Inhibition Factor Xa at 100 μM (Human factor Xa): 24% at
Structure (SMILES): CC(CC(=O)O)Nc1nc(Cl)c(-c2cccc(N)c2)n(CC(=O)NCc2ccc(C(=N)N)cc2)c1=O (stereo not shown) [Example 130]

- IC50 ([1]; read-out: IC50 TF-VIIa): 3.6 µM
- % Inhibition Factor Xa (30 µM) (Human factor Xa): 4%
Structure (SMILES): COCC(C)Nc1nc(Cl)c(-c2ccccc2)n(CC(=O)NCc2ccc(C(=N)N)cc2)c1=O (stereo not shown) [1512-07]

- IC50 [1, 3]: 0.17 µM
- IC50 [2, 4]: 0.21 µM
- IC50 (Human factor Xa): > 30 µM
Structure (SMILES): CCC(C)(C)Nc1nc(Cl)c(-c2cccc(N)c2)n(CC(=O)NCc2ccc(C(=N)N)cc2)c1=O [1526-06]

- IC50 [1, 3]: 2.6 µM
- IC50 [2, 4]: 1.5 µM
- % Inhibition Factor Xa (30 µM) (Human factor Xa; cells with % sign, and bare 0): 0%
Structure (SMILES): CC(C(=O)NCc1ccc(C(=N)N)cc1)n1c(-c2ccccc2)c(Cl)nc(NC2CCC2)c1=O (stereo not shown) [Example 1517-09]

- IC50 [1, 3]: 0.28 µM
- IC50 [2, 4]: 0.05 µM
- % Inhibition Factor Xa (30 µM) (Human factor Xa; cells with % sign, and bare 0): 26%
Structure (SMILES): CCN(CC)CC(C)Nc1nc(Cl)c(-c2cccc(N)c2)n(CC(=O)NCc2ccc(C(=N)N)cc2)c1=O (stereo not shown) [1543-25]
